# Laboratory results from US20250262279A1, “DOSE REGIMEN FOR LONG-ACTING GLP1/GLUCAGON RECEPTOR AGONISTS” (Boehringer Ingelheim International GmbH, priority 2021, published 2025).
# Like-named read-outs stand apart in the source and are kept apart here.
# Key:
# [1] = Example 2: plasma pharmacokinetics; type: in vivo; settings: human, sc, read-out: AUC0-168 (gMean)
# Source text: In Table 9, only the gMean PK parameters of subjects who followed the planned dose rising scheme are included. Following subcutaneous administration of Compound I, the gMean plasma AUC0-168 and Cmax increased with further weekly or twice weekly dosing.
# [2] = Example 1 Phase I titration study in obesity/overweight: safety and tolerability
# Source text: Blinded within dose groups, randomised, placebo-controlled
# • Male patients (Part A); male and female patients (Part B) • Age 18 to <70 years • BMI 27 to <40 kg/m^2 • Body weight of at least 70 kg for women and 80 kg for men • Stable body weight, defined as no more than 5% change within 3 months prior to screening
# Further criteria of interest: • AEs (including clinically relevant findings from the physical examination and assessment of local tolerability) • Safety laboratory tests • 12-lead ECG • Vital signs (blood pressure, pulse rate) • Continuous ECG (including mean daily heart rate) • Assessment of local tolerability by the investigator • The cumulative number [N (%)] of patients withdrawn from up-titration by up-titration scheme and week
# Descriptive statistics were calculated for all endpoints. […] No formal interim analysis was conducted. Data from the completed 6-week cohorts were analysed before database lock for internal decision-making.
# [3] = first-in-man Phase I single-rising-dose study, adverse events; type: in vivo, human
# Experimental: Compound I was recently studied in a first-in-man Phase I single-rising-dose study. In this study, a dose of 0.3 mg led to ‘mild loss of appetite’ in 33% of healthy subjects. This specific AE increased to 50% in the 0.5 mg dose group. Dose escalation to 1.2 mg was associated with 83% of the subjects experiencing moderate to severe nausea for 1 to 6 days and mild to severe vomiting.
# [4] = Ex.1 Part B, Weekly 6 (twice weekly)
structure (smiles),measurement,setting,value
CC[C@H](C)[C@H](NC(=O)[C@H](Cc1ccccc1)NC(=O)[C@H](CC(=O)O)NC(=O)[C@H](CCCCN)NC(=O)[C@H](C)NC(=O)[C@H](C)NC(=O)[C@H](CCCNC(=N)N)NC(=O)[C@H](CCC(=O)O)NC(=O)[C@H](CC(=O)O)NC(=O)[C@H](CC(C)C)NC(=O)[C@H](Cc1ccc(O)cc1)NC(=O)[C@H](CCCCN)NC(=O)[C@H](CO)NC(=O)[C@H](Cc1ccc(O)cc1)NC(=O)[C@H](CC(=O)O)NC(=O)[C@H](CO)NC(=O)[C@@H](NC(=O)[C@H](Cc1ccccc1)NC(=O)[C@@H](NC(=O)CNC(=O)[C@H](CCC(N)=O)NC(=O)C1(NC(=O)[C@@H](N)Cc2c[nH]cn2)CCC1)[C@@H](C)O)[C@@H](C)O)C(=O)N[C@@H](CCCCNC(=O)CNC(=O)CNC(=O)[C@H](CO)NC(=O)CNC(=O)[C@H](CO)NC(=O)CNC(=O)CC[C@H](NC(=O)CCCCCCCCCCCCCCCCC(=O)O)C(=O)O)C(=O)N[C@@H](Cc1c[nH]c2ccccc12)C(=O)N[C@@H](CC(C)C)C(=O)N[C@@H](CCC(=O)O)C(=O)N[C@@H](CO)C(=O)N[C@@H](C)C(N)=O [Compound I],AUC(0-t),"[1]; 0.6 mg, Ex.2 DG2 weekly, wk 1, 0.6 mg sc",2.02 µM·h
same,AUC(0-t),"[1]; 0.6 mg, Ex.2 DG3 twice weekly, wk 3, 0.6 mg sc",1.64 µM·h
same,AUC(0-t),"[1]; 0.9 mg, Ex.2 DG1 weekly, wk 3, 0.9 mg sc",3.62 µM·h
same,AUC(0-t),"[1]; 0.9 mg, Ex.2 DG3 twice weekly, wk 5, 0.9 mg sc",3.52 µM·h
same,AUC(0-t),"[1]; 0.9 mg, Ex.2 DG3 twice weekly, wk 6, 0.9 mg sc",3.83 µM·h
same,AUC(0-t),"[1]; 1.2 mg, Ex.2 DG2 weekly, wk 3, 1.2 mg sc",4.93 µM·h
same,AUC(0-t),"[1]; 1.2 mg, Ex.2 DG3 twice weekly, wk 7, 1.2 mg sc",4.69 µM·h
same,AUC(0-t),"[1]; 1.5 mg, Ex.2 DG1 weekly, wk 5, 1.5 mg sc",6.74 µM·h
same,AUC(0-t),"[1]; 1.5 mg, Ex.2 DG3 twice weekly, wk 9, 1.5 mg sc",6.72 µM·h
same,AUC(0-t),"[1]; 1.8 mg, Ex.2 DG1 weekly, wk 6, 1.8 mg sc",8.41 µM·h
same,AUC(0-t),"[1]; 1.8 mg, Ex.2 DG1 weekly, wk 7, 1.8 mg sc",9.01 µM·h
same,AUC(0-t),"[1]; 1.8 mg, Ex.2 DG1 weekly, wk 9, 1.8 mg sc",8.52 µM·h
same,AUC(0-t),"[1]; 1.8 mg, Ex.2 DG1 weekly, wk 11, 1.8 mg sc",8.83 µM·h
same,AUC(0-t),"[1]; 1.8 mg, Ex.2 DG1 weekly, wk 13, 1.8 mg sc",9.22 µM·h
same,AUC(0-t),"[1]; 1.8 mg, Ex.2 DG1 weekly, wk 15, 1.8 mg sc",9.5 µM·h
same,AUC(0-t),"[1]; 1.8 mg, Ex.2 DG1 weekly, wk 16, 1.8 mg sc",9.62 µM·h
same,AUC(0-t),"[1]; 1.8 mg, Ex.2 DG2 weekly, wk 5, 1.8 mg sc",6.64 µM·h
same,AUC(0-t),"[1]; 1.8 mg, Ex.2 DG2 weekly, wk 6, 1.8 mg sc",7.55 µM·h
same,AUC(0-t),"[1]; 1.8 mg, Ex.2 DG3 twice weekly, wk 11, 1.8 mg sc",8.21 µM·h
same,AUC(0-t),"[1]; 2.1 mg, Ex.2 DG3 twice weekly, wk 13, 2.1 mg sc",9.78 µM·h
same,AUC(0-t),"[1]; 2.4 mg, Ex.2 DG2 weekly, wk 7, 2.4 mg sc",9.83 µM·h
same,AUC(0-t),"[1]; 2.4 mg, Ex.2 DG3 twice weekly, wk 15, 2.4 mg sc",10.2 µM·h
same,AUC(0-t),"[1]; 2.4 mg, Ex.2 DG3 twice weekly, wk 16, 2.4 mg sc",11.2 µM·h
same,AUC(0-t),"[1]; 3 mg, Ex.2 DG2 weekly, wk 9, 3.0 mg sc",13.7 µM·h
same,AUC(0-t),"[1]; 3.6 mg, Ex.2 DG2 weekly, wk 11, 3.6 mg sc",16.4 µM·h
same,AUC(0-t),"[1]; 4.2 mg, Ex.2 DG2 weekly, wk 13, 4.2 mg sc",19.3 µM·h
same,AUC(0-t),"[1]; 4.8 mg, Ex.2 DG2 weekly, wk 15, 4.8 mg sc",22.9 µM·h
same,clinical laboratory analyses,[2]; Ex.1 Part A,no treatment-emergent clinically relevant findings
same,deaths,[2]; Ex.1 Part A,No patients died
same,Patients withdrawn from up-titration,"[2]; Ex.1 Part A (6 wk), Compound I total",27 (40.3) N (%)
same,Patients withdrawn from up-titration,"[2]; Ex.1 Part A (6 wk), Weekly 1",6 (35.3) N (%)
same,Patients withdrawn from up-titration,"[2]; Ex.1 Part A (6 wk), Weekly 2",8 (44.4) N (%)
same,Patients withdrawn from up-titration,"[2]; Ex.1 Part A (6 wk), Weekly 3",13 (76.5) N (%)
same,Patients with AE leading to discontinuation of trial drug,"[2]; Ex.1 Part A, Cmp I total",5 (7.5) N (%)
same,Patients with any AE,"[2]; Ex.1 Part A, Cmp I total",67 (100) N (%)
same,Patients with investigator defined drug-related AE,"[2]; Ex.1 Part A, Cmp I total",67 (100) N (%)
same,Patients with other significant AEs (ICH E3),"[2]; Ex.1 Part A, Cmp I total",5 (7.5) N (%)
same,Patients with serious AE,"[2]; Ex.1 Part A, Cmp I total",1 (1.5) N (%)
same,Patients with severe AE,"[2]; Ex.1 Part A, Cmp I total",3 (4.5) N (%)
same,Patients with AE leading to discontinuation of trial drug,"[2]; Ex.1 Part A, Daily",0 N (%)
same,Patients with any AE,"[2]; Ex.1 Part A, Daily",15 (100) N (%)
same,Patients with investigator defined drug-related AE,"[2]; Ex.1 Part A, Daily",15 (100) N (%)
same,Patients with other significant AEs (ICH E3),"[2]; Ex.1 Part A, Daily",0 N (%)
same,Patients with serious AE,"[2]; Ex.1 Part A, Daily",0 N (%)
same,Patients with severe AE,"[2]; Ex.1 Part A, Daily",0 N (%)
same,"drug-related abdominal distension, frequency","[2]; Ex.1 Part A, Daily",13.3%
same,drug-related cardiac disorders,"[2]; Ex.1 Part A, Daily",No drug-related cardiac disorders were reported
same,"drug-related vomiting, frequency","[2]; Ex.1 Part A, Daily",no cases
same,Patients with AE leading to discontinuation of trial drug,"[2]; Ex.1 Part A, Weekly 1",1 (5.9) N (%)
same,Patients with any AE,"[2]; Ex.1 Part A, Weekly 1",17 (100) N (%)
same,Patients with investigator defined drug-related AE,"[2]; Ex.1 Part A, Weekly 1",17 (100) N (%)
same,Patients with other significant AEs (ICH E3),"[2]; Ex.1 Part A, Weekly 1",1 (5.9) N (%)
same,Patients with serious AE,"[2]; Ex.1 Part A, Weekly 1",0 N (%)
same,Patients with severe AE,"[2]; Ex.1 Part A, Weekly 1",1 (5.9) N (%)
same,proportion of patients who withdrew from up-titration,"[2]; Ex.1 Part A, Weekly 1",35.3%
same,patients with severe diarrhoea,"[2]; Ex.1 Part A, Weekly 1 and Weekly 2",2 patients
same,Patients with AE leading to discontinuation of trial drug,"[2]; Ex.1 Part A, Weekly 2",2 (11.1) N (%)
same,Patients with any AE,"[2]; Ex.1 Part A, Weekly 2",18 (100) N (%)
same,Patients with investigator defined drug-related AE,"[2]; Ex.1 Part A, Weekly 2",18 (100) N (%)
same,Patients with other significant AEs (ICH E3),"[2]; Ex.1 Part A, Weekly 2",2 (11.1) N (%)
same,Patients with serious AE,"[2]; Ex.1 Part A, Weekly 2",1 (5.6) N (%)
same,Patients with severe AE,"[2]; Ex.1 Part A, Weekly 2",2 (11.1) N (%)
same,patients with severe vomiting,"[2]; Ex.1 Part A, Weekly 2",one
same,proportion of patients who withdrew from up-titration,"[2]; Ex.1 Part A, Weekly 2",44.4%
same,patients with serious AE ventricular tachycardia,"[2]; Ex.1 Part A, Weekly 2, assessed as drug-related, led to discontinuation",One
same,Patients with AE leading to discontinuation of trial drug,"[2]; Ex.1 Part A, Weekly 3",2 (11.8) N (%)
same,Patients with any AE,"[2]; Ex.1 Part A, Weekly 3",17 (100) N (%)
same,Patients with investigator defined drug-related AE,"[2]; Ex.1 Part A, Weekly 3",17 (100) N (%)
same,Patients with other significant AEs (ICH E3),"[2]; Ex.1 Part A, Weekly 3",2 (11.8) N (%)
same,Patients with serious AE,"[2]; Ex.1 Part A, Weekly 3",0 N (%)
same,Patients with severe AE,"[2]; Ex.1 Part A, Weekly 3",0 N (%)
same,proportion of patients who withdrew from up-titration,"[2]; Ex.1 Part A, Weekly 3",76.5%
same,proportion of patients who withdrew from up-titration,"[2]; Ex.1 Part A, all Compound I groups",40.3%
same,"continuous ECG monitoring over 24 hours, mean heart rate","[2]; Ex.1 Part A, all Compound I treatment groups",increases in mean heart rate
same,clinical laboratory analyses,[2]; Ex.1 Part B,no treatment-emergent clinically relevant findings
same,deaths,[2]; Ex.1 Part B,No patients died
same,drug-related cardiac disorders,[2]; Ex.1 Part B,no cases
same,Patients withdrawn from up-titration,"[2]; Ex.1 Part B (16 wk), Compound I total",8 (22.2) N (%)
same,Patients withdrawn from up-titration,"[2]; Ex.1 Part B (16 wk), Weekly 4",3 (23.1) N (%)
same,Patients withdrawn from up-titration,"[2]; Ex.1 Part B (16 wk), Weekly 5",4 (36.4) N (%)
same,Patients withdrawn from up-titration,"[2]; Ex.1 Part B (16 wk), Weekly 6 (twice weekly)",1 (8.3) N (%)
same,Patients with AE leading to discontinuation of trial drug,"[2]; Ex.1 Part B, Cmp I Total",6 (16.7) N (%)
same,Patients with any AE,"[2]; Ex.1 Part B, Cmp I Total",35 (97.2) N (%)
same,Patients with investigator defined drug-related AE,"[2]; Ex.1 Part B, Cmp I Total",35 (97.2) N (%)
same,Patients with other significant AEs (ICH E3),"[2]; Ex.1 Part B, Cmp I Total",8 (22.2) N (%)
same,Patients with serious AE,"[2]; Ex.1 Part B, Cmp I Total",0 N (%)
same,Patients with severe AE,"[2]; Ex.1 Part B, Cmp I Total",8 (22.2) N (%)
same,Patients with AE leading to discontinuation of trial drug,"[2]; Ex.1 Part B, Weekly 4",3 (23.1) N (%)
same,Patients with any AE,"[2]; Ex.1 Part B, Weekly 4",13 (100.0) N (%)
same,Patients with investigator defined drug-related AE,"[2]; Ex.1 Part B, Weekly 4",13 (100.0) N (%)
same,Patients with other significant AEs (ICH E3),"[2]; Ex.1 Part B, Weekly 4",4 (30.8) N (%)
same,Patients with serious AE,"[2]; Ex.1 Part B, Weekly 4",0 N (%)
same,Patients with severe AE,"[2]; Ex.1 Part B, Weekly 4",4 (30.8) N (%)
same,"drug-related gastrointestinal disorders, frequency","[2]; Ex.1 Part B, Weekly 4",92.3%
same,Patients with AE leading to discontinuation of trial drug,"[2]; Ex.1 Part B, Weekly 5",2 (18.2) N (%)
same,Patients with any AE,"[2]; Ex.1 Part B, Weekly 5",11 (100.0) N (%)
same,Patients with investigator defined drug-related AE,"[2]; Ex.1 Part B, Weekly 5",11 (100.0) N (%)
same,Patients with other significant AEs (ICH E3),"[2]; Ex.1 Part B, Weekly 5",3 (27.3) N (%)
same,Patients with serious AE,"[2]; Ex.1 Part B, Weekly 5",0 N (%)
same,Patients with severe AE,"[2]; Ex.1 Part B, Weekly 5",4 (36.4) N (%)
same,"drug-related gastrointestinal disorders, frequency","[2]; Ex.1 Part B, Weekly 5",all patients
same,proportion of patients who withdrew from up-titration,"[2]; Ex.1 Part B, Weekly 5",36.4%
same,Patients with AE leading to discontinuation of trial drug,[2]; [4],1 (8.3) N (%)
same,Patients with any AE,[2]; [4],11 (91.7) N (%)
same,Patients with investigator defined drug-related AE,[2]; [4],11 (91.7) N (%)
same,Patients with other significant AEs (ICH E3),[2]; [4],1 (8.3) N (%)
same,Patients with serious AE,[2]; [4],0 N (%)
same,Patients with severe AE,[2]; [4],0 N (%)
same,"drug-related gastrointestinal disorders, frequency",[2]; [4],58.3%
same,proportion of patients who withdrew from up-titration,[2]; [4],8.3%
same,proportion of patients who withdrew from up-titration,"[2]; Ex.1 Part B, all Compound I groups",22.2%
same,"ECG analyses, heart rate","[2]; Ex.1 Part B, all Compound I treatment groups",increases in heart rate
same,healthy subjects with mild loss of appetite,[3]; single dose 0.3 mg,33%
same,healthy subjects with mild loss of appetite,[3]; single dose 0.5 mg,50%
same,subjects with moderate to severe nausea for 1 to 6 days and mild to severe vomiting,[3]; single dose 1.2 mg,83%
